Assay results: patent US6927211B2, “Method for reducing toxicity of combined chemotherapies” (Bristol-Myers Squibb Company, priority 2000, dated 2005)
Entries after “also recorded” stand apart in the source; their conditions may differ.

How the values were obtained:
Format in all cases: biochemical
human cardiac cytosol [1] = experiment: Reconstitution of DOX metabolism and DOXol formation, plus or minus taxanes, in human cardiac cytosol; settings: for stimulation of DOXol formation (in words): [4Fe-4S]-depleted cytosol, DOX 25 μM, taxanes 1-50 μM, 4 h, FIG. 3; for doxorubicinol formation from DOX: taxane 1 μM, DOX without taxane 0.46±0.04, n=3, P<0.05
Experimental: (§1) Human myocardium is obtained from patients undergoing aorto-coronary bypass grafting. All samples were routinely disposed of by the surgeons from the lateral aspect of excluded right atrium during cannulation procedures for cardio-pulmonary by-pass. After storage at −80° C., pools of 15-20 samples are processed for cytosol preparation by sequential homogenization, ultracentrifugation and overnight 65% ammonium sulfate precipitation of 105,000 g supernatants. Next, cytosol is dialyzed against 100 mM Tris HCl-40 mM KCl, pH 8.9, diluted to 3 mg protein/ml with the same buffer, and incubated for 15 minutes at room temperature with 100 mM dithiothreitol to promote non-denaturing disassembly of the [4Fe-4S] cluster of cytoplasmic aconitase. This treatment is necessary as reactions of DOXol with [4Fe-4S] clusters would convert this metabolite back to DOX. Sizable amounts of DOXol would therefore go undetected if they reacted with [4Fe-4S] clusters prior to their assay. Unreacted dithiothreitol was eventually removed by sequential gel filtration on (1.5×10 cm) Sepharose 6B columns, protein reprecipitation with 65% ammonium sulfate, and extensive dialysis against 0.3 M NaCl, pH 7.0. Doxorubicin metabolism was reconstituted in 0.5 ml incubations containing cytosol (0.15 mg protein), NADPH (100 μM) and DOX (25 μM), in 0.3 M NaCl (pH 7.0) 37° C. Where indicated ethanol-dissolved taxanes (1-50 μM) were included. Aliquots of taxane-free ethanol (5 μl) were included as appropriate to adjust the final volume to 10 μl in all incubations. After 4 h DOX and DOXol were extracted with 2 ml of CHCl3/CH3OH (1:1) and separated by previously validated two-dimensional TLC on (20×20 cm) […] F524 Silica Gel Plates, using CHCl3/CH3OH/CH3COOH/H2O (80:20:14:6) as mobile phase in either dimension. Doxorubicinol was identified by cochromatography with (S)-DOXol from Streptomyces peucetius or (S) (R)-DOXol purified after NaBH4 reduction of DOX. Where indicated incubations were prepared by replacing DOX with DOX aglycone and by measuring formation of DOXol aglycone. The latter was separated from DOX aglycone by using CHCl3/CH3OH/CH3COOH (100:2:5) and CH3COOC2H5—CH3CH2OH—CH3COOH—H2O (80:10:5:5) in the first and second dimension, respectively. DOX aglycone was purified after thermoacid hydrolysis of DOX.

human cardiac microsomes [2] = experiment: NADPH oxidation by deoxycholate-solubilized human heart microsomes incubated with DOX, plus or minus taxanes; settings: 10 μM DOX, 1-10 μM taxane; FIG. 5
Experimental: (§2) 105,000 g pellets from human myocardium homogenates are solubilized with deoxycolate and reconstituted at the final concentration of 0.025 mg prot/ml with 10 μM DOX, 1-10 μM taxane, 0.1 mM NADPH, in 0.3 M NaCl, pH 7.0, 37° C.
(§3) Electron flow from NADPH cytochrome P-450 reductase to the quinone moiety of DOX is detected by monitoring NADPH oxidation. Redox coupling of the semiquinone with oxygen is detected by monitoring formation of the superoxide anion radical with the superoxide dismutase-inhibitable reduction of cytochrome c (25 μM). These assays are performed in a Hewlett Packard 8453A UV/VIS/NIR spectrometer equipped with computer-assisted corrections for scatter and turbidity.

human cardiac cytosol [3] = experiment: Conversion of DOX aglycone into DOXol aglycone, plus or minus taxanes, in human cardiac cytosol; settings: for stimulation of conversion of DOX aglycone into DOXol aglycone (in words): human cardiac cytosol, FIG. 4; for doxorubicinolone formation from doxorubicinone: taxane 1 μM, without taxane 0.8±0.1, n=3, P<0.05
Experimental: as §1

human cardiac microsomes [4] = experiment: Superoxide anion formation (SOD-inhibitable cytochrome c reduction) by deoxycholate-solubilized human heart microsomes with DOX, plus or minus taxanes; settings: for increase of DOX-dependent superoxide anion formation (in words): 10 μM taxane with DOX
Experimental: as §2, §3

In the case of `CC(=O)O[C@H]1C(=O)[C@@]2(C)[C@H]([C@H](OC(=O)c3ccccc3)[C@]3(O)C[C@H](OC(=O)[C@H](O)[C@@H](NC(=O)c4ccccc4)c4ccccc4)C(C)=C1C3(C)C)[C@]1(OC(C)=O)CO[C@@H]1C[C@@H]2O` [PTX, paclitaxel], the “stimulation of DOXol formation (in words)” value (human cardiac cytosol [1]) is reported as “stimulate”, the “doxorubicinol formation from DOX” value (human cardiac cytosol [1]) is reported as 1.1±0.2 nmol/mg prot./4h and the “stimulation of NADPH oxidation in the presence of DOX (in words)” value (“stimulation of NADPH oxidation” below) (human cardiac microsomes [2]) is reported as “able to stimulate”. The “stimulation of conversion of DOX aglycone into DOXol aglycone (in words)” value (from here on “stimulation of conversion … (in words)”) (human cardiac cytosol [3]) was “able to stimulate”, the “doxorubicinolone formation from doxorubicinone” value (human cardiac cytosol [3]) was 1.4±0.2 nmol/mg prot./4h and the “increase of DOX-dependent superoxide anion formation (in words)” value (shortened to “increase”) (human cardiac microsomes [4]; FIG. 6) was “significant increase”. The “generation of superoxide anion radicals in microsomal fractions” value (human cardiac microsomes [4]; taxane 10 μM, DOX without taxane 1.6±0.1, n=4-10, P<0.05) was 2.2±0.2 nmol/mg prot./min.

For `COc1cccc2c1C(=O)c1c(O)c3c(c(O)c1C2=O)C[C@@](O)(C(=O)CO)C[C@@H]3O[C@H]1C[C@H](N)[C@H](O)[C@H](C)O1` [DOX, doxorubicin], the “effect of DOX on superoxide anion formation (in words)” value (human cardiac microsomes [4]; DOX without taxane, FIG. 6) was “enhances; also recorded: able to enhance”.

For `CC(=O)O[C@@]12CO[C@@H]1C[C@H](O)[C@@]1(C)C(=O)[C@H](O)C3=C(C)[C@@H](OC(=O)[C@H](O)[C@@H](NC(=O)OC(C)(C)C)c4ccccc4)C[C@@](O)([C@@H](OC(=O)c4ccccc4)[C@H]21)C3(C)C` [DCT, docetaxel], the “stimulation of DOXol formation (in words)” value (human cardiac cytosol [1]) was “stimulate”, the “doxorubicinol formation from DOX” value (human cardiac cytosol [1]) was 1.2±0.2 nmol/mg prot./4h and the “stimulation of NADPH oxidation” value (human cardiac microsomes [2]) was “able to stimulate”. For the same compound, the “stimulation of conversion … (in words)” value (human cardiac cytosol [3]) was “able to stimulate”, the “doxorubicinolone formation from doxorubicinone” value (human cardiac cytosol [3]) was 1.3±0.2 nmol/mg prot./4h and the “increase” value (human cardiac microsomes [4]; FIG. 6) was “significant increase”.

For `COC(=O)O[C@@]12CO[C@@H]1C[C@H](O)[C@@]1(C)C(=O)[C@H](OC(C)=O)C3=C(C)[C@@H](OC(=O)[C@H](O)[C@@H](NC(=O)c4ccccc4)c4ccccc4)C[C@@](O)([C@@H](OC(=O)c4ccccc4)[C@H]21)C3(C)C` [4-desacetyl-4-methylcarbonate taxol], the “stimulation of DOXol formation (in words)” value (human cardiac cytosol [1]) was “did not stimulate; also recorded: did not increase”, the “stimulation of NADPH oxidation” value (human cardiac microsomes [2]) was “stimulated this oxidation only at the highest levels tested; also recorded: stimulated NADPH oxidation only at the highest concentration tested, although this was not statistically significant” and the “stimulation of conversion … (in words)” value (human cardiac cytosol [3]) was “failed to stimulate; also recorded: did not increase; also recorded: has not been found to stimulate”. The “increase” value (human cardiac microsomes [4]; FIG. 6) was “did not increase; also recorded: did not afford any significant stimulation”.
